Values after ≈ are worked out from the molar mass of the structure shown. Some results are limits rather than exact numbers.

A short description of series [1]: Aqueous solubility. The class given is physicochemical.
The target in series [2] is Galectin-3 (Homo sapiens, UniProt P17931). Description: Fluorescence anisotropy assay, inhibition of galectin / fluorescein tagged saccharide probe interaction. It is filed as binding. The protocol:
(§1) The affinity of Example 1-28 for galectins were determined by a fluorescence anisotropy assay where the compound was used as an inhibitor of the interaction between galectin and a fluorescein tagged saccharide probe as described Sörme, P., Kahl-Knutsson, B., Huflejt, M., Nilsson, U. J., and Leffler H. (2004) Fluorescence polarization as an analytical tool to evaluate galectin-ligand interactions. Anal. Biochem. 334: 36-47, (Sörme et al., 2004) and Monovalent interactions of Galectin-1 By Salomonsson, Emma; Larumbe, Amaia; Tejler, Johan; Tullberg, Erik; Rydberg, Hanna; Sundin, Anders; Khabut, Areej; Frejd, Torbjorn; Lobsanov, Yuri D.; Rini, James M.; et al, From Biochemistry (2010), 49(44), 9518-9532, (Salomonsson et al., 2010).
For orientation: Fluorescence polarisation rises when a labelled molecule tumbles more slowly, as on binding a larger partner.

Series [3] addresses Galectin-1 (Homo sapiens, UniProt P09382). The description is as above. It is filed as binding. The protocol:
as §1

Series [4] relates to galectins. The note with it: cited from earlier work.

Galectin-3, sequence (P17931 whole entry): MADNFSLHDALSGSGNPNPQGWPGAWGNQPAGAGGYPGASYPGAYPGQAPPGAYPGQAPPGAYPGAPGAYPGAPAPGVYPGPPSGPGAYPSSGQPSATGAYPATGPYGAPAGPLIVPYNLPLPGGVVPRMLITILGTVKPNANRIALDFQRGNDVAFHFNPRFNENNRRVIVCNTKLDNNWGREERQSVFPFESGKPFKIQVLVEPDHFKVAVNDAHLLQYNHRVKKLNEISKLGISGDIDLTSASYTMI
Galectin-1, sequence (P09382 whole entry): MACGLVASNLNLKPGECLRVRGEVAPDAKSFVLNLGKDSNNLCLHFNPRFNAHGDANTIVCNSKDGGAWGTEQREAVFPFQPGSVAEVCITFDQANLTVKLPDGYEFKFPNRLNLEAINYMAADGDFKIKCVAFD

The term solubility denotes the dissolved amount per volume that the medium holds. As a reminder, the Kd is the equilibrium constant for the complex coming apart. In the case of `CS(=O)(=O)NC(=O)COC1C(n2cc(-c3cc(F)c(Cl)c(F)c3)nn2)[C@@H](O)C(CO)O[C@@H]1Sc1ccc(Cl)c(Cl)c1` (stereo in doubt) [Example 9, 3,4-Dichlorphenyl 3-[4-(4-chloro-3,5-difluorophenyl)-1H-1,2,3-triazol-1-yl]-3-deoxy-2-O-[2-(methylsulfonamido)-2-oxoethyl]-1-thio-α-D-galactopyranoside], in series [1], the concentration in solution (solubility) came to 2900 µg/mL (≈ 4.3 mM). For the same compound, the Kd in series [2] was found to be 0.023 µM; in series [3], 3 µM.

In the case of `O=C[C@H](O)[C@@H](O)[C@@H](O)[C@H](O)CO` [D-galactose], in series [4] (relative to lactose), the “affinity, times lower than lactose” value was 50-100 times.

For `O=P(O)(O)OCO[C@@H]1[C@@H](n2cc(-c3cc(F)c(F)c(F)c3)nn2)[C@@H](O)[C@@H](CO)O[C@@H]1Sc1cncc(Br)c1` [Example 5, 5-Bromopyridin-3-yl 3-deoxy-3-[4-(3,4,5-trifluorophenyl)-1H-1,2,3-triazol-1-yl]-2-O-[(phosphonooxy)methyl]-1-thio-α-D-galactopyranoside], the solubility in series [1] was greater than 10000 µg/mL. The Kd in series [2] was 0.012 µM; in series [3], 3.83 µM.

In the case of `O=C(O)CO[C@@H]1[C@@H](n2cc(-c3cc(F)c(Cl)c(F)c3)nn2)[C@@H](O)[C@@H](CO)O[C@@H]1Sc1ccc(Cl)c(Cl)c1` [Example 7, 3,4-Dichlorphenyl 2-O-carboxymethyl-3-[4-(4-chloro-3,5-difluorophenyl)-1H-1,2,3-triazol-1-yl]-3-deoxy-1-thio-α-D-galactopyranoside], the solubility in series [1] was determined as 2000 µg/mL (≈ 3.35 mM). Also, the Kd in series [2] was determined as 0.0085 µM; in series [3], 2 µM.

In turn, `O=C(O)CO[C@@H]1[C@@H](n2cc(-c3cc(F)c(F)c(F)c3)nn2)[C@@H](O)[C@@H](CO)O[C@@H]1Sc1cncc(Br)c1` [Example 8, 5-Bromopyridin-3-yl 2-O-carboxymethyl-3-deoxy-3-[4-(3,4,5-trifluorophenyl)-1H-1,2,3-triazol-1-yl]-1-thio-α-D-galactopyranoside] had a solubility in series [1] of 1800 µg/mL (≈ 3.04 mM). For the same compound, the Kd turned out to be 0.007 µM in series [2] and 1.8 µM in series [3].

With `OC[C@H]1O[C@@H](O[C@H]2[C@H](O)[C@@H](O)C(O)O[C@@H]2CO)[C@H](O)[C@@H](O)[C@H]1O` (some centres unmarked) [lactose], in series [4] (all galectins), the Kd is 500 to 1000 µM.

Source of the values: patent US12497428B2, “Galactoside inhibitor of galectins” (GALECTO BIOTECH AB, priority 2018, dated 2025).
